Experimental data: patent US20250268429A1, “Fluid Dispenser With Automatic Fluid Composition Adjustment” (OP-HYGIENE IP GmbH, priority 2024, published 2025)

Test system: Bacillus subtilis spores
Assay: in vitro killing of Bacillus subtilis spores by foam compositions (LOG reduction factor, CFU count)
Format: cell-based
Conditions: conclusion from Table 3
Procedure: The compositions of Foams 1 to 6 are the same as in Table 1. Foam 7 contained 70% isopropanol.
In the in vitro experiments summarized above, the following method was used: the bacterial culture was serially diluted (1 LOG); the tested foam was added to 50 μL of the diluted solution and stirred for 15 seconds; the resulting mixture was transferred to an agar plate and incubated for 24 hours before counting the bacterial colonies (CFUs). The LOG reduction factor was calculated as the LOG bacteria before treatment minus the LOG bacteria after treatment.

With CC(C)O [Isopropanol, isopropanol] the “effectiveness at killing Bacillus subtilis spores (in words)” value was “not effective”.
